# Data from article PMC9554092, “Self-assembled peptide-paclitaxel nanoparticles for enhancing therapeutic efficacy in colorectal cancer” (Frontiers in Bioengineering and Biotechnology, 2022).
# What was measured:
# [1] = tested on: colorectal cancer patient-derived xenografts (PDX); experiment: In vivo therapeutic efficacy in CRC patient-derived xenograft (PDX) model; details: CRC PDX mice
# Experimental: (§1) The therapeutic efficacy of was evaluated in PDX mice model. When the tumor volume reached about 100 mm3, mice were randomly assigned into four groups (six mice per group) and intravenously administered with DMSO, free PTX, Rev-PTX NPs and LPK-PTX NPs respectively at an equivalent dose of 0.8 mg/kg PTX every 3 days. Total mice body weights and tumor sizes were recorded every 3 days. At the end of the observation, tumors and major organs including heart, liver, spleen, lung, colon and kidney were isolated, […] and subjected to hematoxylin and eosin (H&E) and Ki-67 staining using standard protocols for histopathological analysis.
# HCT116 cells = experiment: Cell apoptosis, Annexin V-Alexa Fluor488/PI flow cytometry; format: cell-based, human; details: HCT116, PTX concentration 5 μg/ml, 48 h, representative result
# Experimental: HCT116 cells were seeded in six-well plates at a density of 1 × 10^4 cells per well and incubated at 37°C until a confluence of 80%. The cells were treated with PTX, Rev-PTX NPs, LPK-PTX NPs at normalized PTX concentration of 5 μg/ml at 37°C for 48 h. Then the cells were trypsinzed, washed, and stained with Annexin V-Alexa Fluor488/PI according to manufacturer’s protocol (Life Technologies, United States). The cell apoptosis was monitored by flow cytometry (BD, CA, United States) and the apoptotic percentage of three independent experiments was analyzed.
# [2] = Systemic toxicity in the PDX model (body weight, H&E of major organs); format: in vivo; details: PDX mice
# Experimental: as §1
structure (smiles),measurement,setting,value
"CC(=O)O[C@H]1C(=O)[C@@]2(C)[C@H]([C@H](OC(=O)c3ccccc3)[C@]3(O)C[C@H](OC(=O)[C@H](O)[C@@H](NC(=O)c4ccccc4)c4ccccc4)C(C)=C1C3(C)C)[C@]1(OC(C)=O)CO[C@@H]1C[C@@H]2O [PTX, Paclitaxel]",Ki-67 staining of tumor tissue,[1],numerous Ki-67-positive cells
same,early plus late apoptosis (Q3 + Q2),HCT116 cells,44.8%
same,colon histology (HE),[2],severe crypt destruction
same,"HE-stained sections of colon, lung and liver",[2]; 0.8 mg/kg PTX equivalent i.v. every 3 days,serious damages
